5 molecules from PubChem BioAssay (NCI) can be followed below.

Among the test systems are A498 renal; A549 NSCLC; BT-549 breast; EKVX NSCLC; HL-60(TB) leukemia; HOP-62 NSCLC; HOP-92 NSCLC; K-562 leukemia; NCI-H23 lung; NCI-H460 lung; NCI/ADR-RES ovarian; OVCAR-5 ovarian; OVCAR-8 ovarian; PC-3 prostate; RXF 393 renal; SNB-19 CNS; SW-620 colon; T-47D breast; TK-10 renal; UACC-62 melanoma.
What all share (test): NCI-60 cell line screen, 48 h

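In this assay, cells in 96-well plates receive the compound at five concentrations for 48 hours. Endpoints are linearly interpolated between the surrounding concentrations. TGI denotes the concentration required for complete inhibition of growth.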 Some results are limits rather than exact numbers.

Take `Cc1ccc2c3c(cnc2n1)C(=O)OCCN3C`: the TGI with A498 renal, in the assay on A549 NSCLC, in the assay with BT-549 breast, in the assay with EKVX NSCLC, with HL-60(TB) leukemia and in the assay on HOP-62 NSCLC was over 100 µM in each case. In addition, the TGI in the assay with HOP-92 NSCLC, in the assay on K-562 leukemia, in the assay on NCI-H23 lung, in the assay with NCI-H460 lung, with NCI/ADR-RES ovarian and in the assay on OVCAR-5 ovarian was over 100 µM throughout. The TGI with OVCAR-8 ovarian, with PC-3 prostate, with RXF 393 renal, in the assay with SNB-19 CNS, in the assay with SW-620 colon and in the assay with T-47D breast was over 100 µM throughout. Also, the TGI in the assay on TK-10 renal and in the assay on UACC-62 melanoma was over 100 µM throughout.

Turning to `[O-]c1c[n+](CCCC[n+]2cc([O-])on2)no1`, the TGI in the assay on A498 renal, with A549 NSCLC, in the assay on BT-549 breast, with EKVX NSCLC, in the assay on HL-60(TB) leukemia and in the assay on HOP-62 NSCLC was over 100 µM in each case. The TGI in the assay on HOP-92 NSCLC, with K-562 leukemia, with NCI-H23 lung, in the assay on NCI-H460 lung, with NCI/ADR-RES ovarian and in the assay on OVCAR-5 ovarian was over 100 µM in each case. The TGI in the assay on OVCAR-8 ovarian, in the assay on PC-3 prostate, with RXF 393 renal, with SNB-19 CNS, with SW-620 colon and in the assay with T-47D breast was over 100 µM in each case. Further, the TGI in the assay with TK-10 renal and with UACC-62 melanoma was over 100 µM throughout.

As to `C/C(=C/c1ccccc1)CN(C(=O)/C=C\Sc1ccccc1)C(C)(C)C`, the TGI in the assay on A498 renal, in the assay with A549 NSCLC, in the assay with BT-549 breast, in the assay with EKVX NSCLC, with HL-60(TB) leukemia and in the assay with HOP-62 NSCLC was over 100 µM each time. In addition, the TGI in the assay on HOP-92 NSCLC was over 71.6 µM; with K-562 leukemia it was over 100 µM; in the assay on NCI-H23 lung it was over 100 µM; in the assay on NCI-H460 lung it was over 100 µM; in the assay on NCI/ADR-RES ovarian, over 100 µM; in the assay on OVCAR-5 ovarian, over 100 µM. Further, the TGI with OVCAR-8 ovarian, with PC-3 prostate, in the assay on RXF 393 renal, in the assay on SNB-19 CNS, with SW-620 colon and in the assay with T-47D breast was over 100 µM in each case. For the same molecule, the TGI in the assay with TK-10 renal and in the assay on UACC-62 melanoma was over 100 µM each time.

Take `CCCc1cc(=O)oc2c(C=O)c(O)cc(O)c12`: the TGI is 40.6 µM in the assay with A498 renal; over 100 µM with A549 NSCLC; 77.1 µM in the assay with BT-549 breast; 56.3 µM in the assay on EKVX NSCLC; 42.7 µM in the assay with HL-60(TB) leukemia; 59.7 µM in the assay on HOP-62 NSCLC. Moreover, the TGI was 45.8 µM in the assay with HOP-92 NSCLC; over 100 µM with K-562 leukemia; 48 µM with NCI-H23 lung; 69.5 µM in the assay with NCI-H460 lung; 73 µM with NCI/ADR-RES ovarian; 74.4 µM in the assay on OVCAR-5 ovarian. The TGI in the assay with OVCAR-8 ovarian is 62 µM; in the assay with PC-3 prostate it was 59.3 µM; with RXF 393 renal it was 53 µM; in the assay with SNB-19 CNS, 87.1 µM; in the assay with SW-620 colon, 56.4 µM; in the assay with T-47D breast, 74.9 µM. Further, the TGI with TK-10 renal was over 100 µM; in the assay with UACC-62 melanoma, 38.4 µM.

For the molecule `CCN1C(=S)n2cccc2C1CC(=O)c1ccc(Cl)cc1` (stereo not given), the TGI with A498 renal, in the assay on A549 NSCLC, with BT-549 breast, with EKVX NSCLC, in the assay with HL-60(TB) leukemia and with HOP-62 NSCLC was over 100 µM each time. In addition, the TGI in the assay with HOP-92 NSCLC, in the assay with K-562 leukemia, in the assay with NCI-H23 lung, in the assay on NCI-H460 lung, in the assay with NCI/ADR-RES ovarian and in the assay with OVCAR-5 ovarian was over 100 µM each time. Further, the TGI with OVCAR-8 ovarian, in the assay on PC-3 prostate, in the assay on RXF 393 renal, with SNB-19 CNS, with SW-620 colon and in the assay on T-47D breast was over 100 µM each time. For the same molecule, the TGI with TK-10 renal and in the assay with UACC-62 melanoma was over 100 µM each time.
